Values of other authors in US10548859B2, “Methods for storing Cysteamine formulations and related methods of treatment” (Horizon Orphan LLC, priority 2015, dated 2020).

Conditions: children with cystinosis

COc1ccc2c(c1)c(CC(=O)O)c(C)n2C(=O)c1ccc(Cl)cc1 [indomethacin]
reduction of urine volume and liquid consumption: about 30%
